Converted amounts (≈) assume the structure as drawn.

The values that follow come from publication PMC6152127, “Facile Synthesis of Novel Coumarin Derivatives, Antimicrobial Analysis, Enzyme Assay, Docking Study, ADMET Prediction and Toxicity Study” (Molecules : A Journal of Synthetic Chemistry and Natural …, 2017).

For series [1], the system named is Aspergillus flavus (NCIM-539). The series can be described thus: In vitro antifungal activity, MIC, agar method (CLSI). The format is cell-based. Particulars: NCIM539, average of three readings. On the procedure: (§1) The newly synthesized 3-((dicyclohexylamino)(substituted phenyl/heteryl)methyl)-4-hydroxy-2H-chromen-2-one derivatives 4a–o were screened for their in vitro antifungal activity against different yeast and filamentous fungal pathogens. […] Dimethyl sulfoxide (DMSO) was used as solvent control.
(§2) All the synthesized compounds were screened for their in vitro antifungal and antibacterial activity. The antibacterial activity was evaluated against three human pathogenic bacterial strains: Escherichia coli (NCIM-2256), Bacillus subtilis (NCIM-2063) and Staphylococcus aureus (NCIM-2901). The antifungal activity was evaluated against seven human pathogenic fungal strains: Candida albicans (NCIM-3471), Candida glabrata (NCYC-388), Fusarium oxysporum (NCIM-1332), Aspergillus fumigates (NCIM-902), Aspergillus flavus (NCIM-539), Aspergillus niger (NCIM-1196) and Cryptococcus neoformans (NCIM-576), which are often encountered clinically. […] Minimum inhibitory concentration (MIC) values were determined as per CLSI guidelines. Dimethyl sulfoxide (DMSO) was used as solvent control.
(§3) Antifungal activity was determined as per CLSI (formerly, NCCLS) guidelines. […] The medium yeast nitrogen base was dissolved in phosphate buffer pH 7 and it was autoclaved at 110 °C for 10 min. With each set a growth control without the antifungal agent and solvent control DMSO were included. The fungal strains were freshly sub cultured on to Sabouraud dextrose agar (SDA) and incubated at 25 °C for 72 h. The fungal cells were suspended in sterile distilled water and diluted to get 10^5 cells/mL. Ten μL of the standardized suspension was inoculated onto the control plates and the media incorporated with the antifungal agents. The inoculated plates were incubated at 25 °C for 48 h. The readings were taken at the end of 48 h and 72 h. The MIC was the lowest concentration of drug preventing growth of macroscopically visible colonies on drug containing plates when there was visible growth on the drug free control plates.

Series [2] relates to Fusarium oxysporum (NCIM-1332). The series is described as above. Type of series: cell-based. The note with it: NCIM1332, average of three readings. On the procedure:
as §1, §2, §3

For series [3], the system named is Candida albicans (NCIM-3471). The description is as above. Type of series: cell-based. The note with it: NCIM3471, average of three readings. On the procedure:
as §1, §2, §3

In series [4] the test system is Aspergillus fumigates (NCIM-902). The series is described as above. Type of series: cell-based. The note with it: NCIM902, average of three readings. As for the experimental part:
as §1, §2, §3

The subject of series [5] is Cryptococcus neoformans (NCIM-576). Described as above. Particulars: NCIM576, average of three readings. Type of series: cell-based. As for the experimental part:
as §1, §2, §3

Series [6] concerns Aspergillus niger (NCIM-1196). The series is described as above. Type of series: cell-based. Particulars: NCIM1196, average of three readings. On the procedure:
as §1, §2, §3

In series [7] the test system is Candida glabrata (NCYC-388). The series is described as above. The format is cell-based. Particulars: Nakaseomyces glabratus; average of three readings. On the procedure: as §1, §2, §3
The subject of series [8] is Bacillus subtilis (NCIM-2063). Nature of the series: In vitro antibacterial activity, MIC. Type of series: cell-based. Particulars: average of three readings; for MIC: Bacillus subtilis, NCIM2063. On the procedure: (§4) The newly synthesized compounds 4a–o were screened for their in vitro antibacterial activity against the three different bacterial strains. Minimum inhibitory concentration (MIC) values for antibacterial activity were determined by standard agar method using Ampicillin as standard drug. Dimethyl sulfoxide (DMSO) was used as solvent control. […] Compound 4e bearing a 2,4-difluoro group on the phenyl ring was 48 µg/mL for E. coli, 50 µg/mL for B. subtilis and 52 µg/mL for S. aureus.
(§5) All the synthesized compounds were screened for their in vitro antifungal and antibacterial activity. The antibacterial activity was evaluated against three human pathogenic bacterial strains: Escherichia coli (NCIM-2256), Bacillus subtilis (NCIM-2063) and Staphylococcus aureus (NCIM-2901). The antifungal activity was evaluated against seven human pathogenic fungal strains: Candida albicans (NCIM-3471), Candida glabrata (NCYC-388), Fusarium oxysporum (NCIM-1332), Aspergillus fumigates (NCIM-902), Aspergillus flavus (NCIM-539), Aspergillus niger (NCIM-1196) and Cryptococcus neoformans (NCIM-576), which are often encountered clinically. Miconazole was used as standard drug. Minimum inhibitory concentration (MIC) values were determined as per CLSI guidelines. Dimethyl sulfoxide (DMSO) was used as solvent control.
(§6) All the synthesized compounds 4a–o were screened for their in vitro antibacterial activity. Minimum inhibitory concentration (MIC) values were determined using method recommended by National Committee for Clinical Laboratory Standards (NCCLS). In vitro antibacterial activities of the synthesized compounds 4a–o were tested in Nutrient Broth (NB) for bacteria by the two fold serial dilution method. Seeded broth (broth containing microbial spores) was prepared in NB from 24 h old bacterial cultures on nutrient agar (Hi-media) at 37± 1 °C. The bacterial suspension was adjusted with sterile saline to a concentration of 1× 10^−4–10^−5 C.F.U. The synthesized compounds and standard drug Ampicillin were prepared by two fold serial dilutions to obtain the required concentrations of 400, 200, 100, 50, 25, 12.5, 6.25 and 3.13 μg/mL. The tubes were incubated in BOD incubators at 37± 1 °C for bacteria. The MICs were recorded by visual observations after 24 h (for bacteria) of incubation.

The subject of series [9] is Staphylococcus aureus (NCIM-2901). Nature of the series: In vitro antibacterial activity, MIC. Type of series: cell-based. The note with it: average of three readings; for MIC: Staphylococcus aureus, NCIM2901. As for the experimental part:
as §4, §5, §6

For series [10], the system named is Escherichia coli (NCIM-2256). The series can be described thus: In vitro antibacterial activity, MIC. The format is cell-based. Particulars: average of three readings; for MIC: Escherichia coli, NCIM2256. As for the experimental part:
as §4, §5, §6

Molecule `O=c1oc2ccccc2c(O)c1C(c1ccc(Cl)cc1)N(C1CCCCC1)C1CCCCC1` (centres unmarked) [Compound 4b, 3-((4-Chlorophenyl)(dicyclohexylamino)methyl)-4-hydroxy-2H-chromen-2-one] registered a melting point of 120 to 122 °C. Inhibition of growth in series [1] (MIC) required 14 µg/mL (≈ 30 µM). The molecule further gave an MIC in series [2] of 34 µg/mL (≈ 73 µM). Further, it took 30 µg/mL (≈ 64.4 µM) to inhibit growth in series [3] (MIC). The molecule also displayed an MIC in [4] of 30 µg/mL (≈ 64.4 µM). This molecule also came in with an MIC in series [5] of 15 µg/mL (≈ 32.2 µM). In [6], this molecule yielded an MIC of 15 µg/mL (≈ 32.2 µM). Further, in series [7], the lowest concentration to inhibit growth (MIC) was 32 µg/mL (≈ 68.7 µM). This molecule also registered an MIC in series [8] of 50 µg/mL (≈ 107 µM). Also, in [9], the MIC was determined as 54 µg/mL (≈ 116 µM). Moreover, the MIC in [10] stood at 52 µg/mL (≈ 112 µM).

On to `O=c1oc2ccccc2c(O)c1C(c1ccccc1O)N(C1CCCCC1)C1CCCCC1` (centres unmarked) [Compound 4j, 3-((Dicyclohexylamino)(2-hydroxyphenyl)methyl)-4-hydroxy-2H-chromen-2-one], for which the melting point lay within 130 to 132 °C. For the same molecule, in series [1], the MIC came out at 32 µg/mL (≈ 71.5 µM). In series [2], this molecule yielded an MIC of 38 µg/mL (≈ 84.9 µM). In series [3], the minimal inhibitory concentration (MIC) was 46 µg/mL (≈ 103 µM). Further, in [4], the minimal inhibitory concentration (MIC) amounted to 55 µg/mL (≈ 123 µM). For the same molecule, the MIC in [5] worked out at 35 µg/mL (≈ 78.2 µM). For the same molecule, it took 30 µg/mL (≈ 67 µM) to inhibit growth in [6] (MIC). The molecule also had a minimal inhibitory concentration (MIC) in series [7] of 47 µg/mL (≈ 105 µM). Also, in series [8], inhibition of growth (MIC) required 72 µg/mL (≈ 161 µM). This molecule had an MIC in series [9] of 72 µg/mL (≈ 161 µM). Besides, the MIC in series [10] amounted to 68 µg/mL (≈ 152 µM).

Regarding `Clc1ccc(COC(Cn2ccnc2)c2ccc(Cl)cc2Cl)c(Cl)c1` (centres unmarked) [Miconazole, reference compound], the minimum inhibitory concentration (MIC) in series [1] stood at 12 µg/mL (≈ 28.8 µM); in series [2], 25 µg/mL (≈ 60.1 µM); in [3], 25 µg/mL (≈ 60.1 µM); in series [4], 35 µg/mL (≈ 84.1 µM); in series [5], 12 µg/mL (≈ 28.8 µM); in series [6], 12 µg/mL (≈ 28.8 µM). The same molecule gave an MIC in [7] of 25 µg/mL (≈ 60.1 µM).

As to `O=c1oc2ccccc2c(O)c1C(c1c(Cl)cccc1Cl)N(C1CCCCC1)C1CCCCC1` (centres unmarked) [Compound 4c, 3-((2,6-Dichlorophenyl)(dicyclohexylamino)methyl)-4-hydroxy-2H-chromen-2-one], the melting point lay within 126 to 128 °C. The molecule further had an MIC in series [1] of 15 µg/mL (≈ 30 µM). The molecule further displayed an MIC in series [2] of 35 µg/mL (≈ 69.9 µM). The MIC in series [3] turned out to be 30 µg/mL (≈ 59.9 µM). For the same molecule, 28 µg/mL (≈ 55.9 µM) was the least that counted as inhibitory in series [4] (MIC). The same molecule yielded an MIC in series [5] of 14 µg/mL (≈ 28 µM). Also, 18 µg/mL (≈ 36 µM) was the least that counted as inhibitory in series [6] (MIC). In addition, inhibition of growth in series [7] (MIC) required 28 µg/mL (≈ 55.9 µM). In addition, in series [8], inhibition of growth (MIC) required 48 µg/mL (≈ 95.9 µM) and the “MIC Bacillus subtilis” value amounted to 48 µg/mL (≈ 95.9 µM). Also, in [9], the lowest concentration to inhibit growth (MIC) was 50 µg/mL (≈ 99.9 µM) and the “MIC Staphylococcus aureus” value is 50 µg/mL (≈ 99.9 µM). In addition, in series [10], the MIC was determined as 50 µg/mL (≈ 99.9 µM) and the “MIC Escherichia coli” value turned out to be 50 µg/mL (≈ 99.9 µM).

Molecule `COc1ccc(C(c2c(O)c3ccccc3oc2=O)N(C2CCCCC2)C2CCCCC2)cc1OC` (centres unmarked) [Compound 4g, 3-((Dicyclohexylamino)(3,4-dimethoxyphenyl)methyl)-4-hydroxy-2H-chromen-2-one] displayed a melting point of 138 to 140 °C. It took 24 µg/mL (≈ 48.8 µM) to inhibit growth in series [1] (MIC). In series [2], this molecule showed an MIC of 35 µg/mL (≈ 71.2 µM). The MIC in series [3] turned out to be 50 µg/mL (≈ 102 µM). The molecule further returned an MIC in series [4] of 52 µg/mL (≈ 106 µM). Besides, the MIC in series [5] was found to be 26 µg/mL (≈ 52.9 µM). Also, the MIC in series [6] was found to be 20 µg/mL (≈ 40.7 µM). Further, the MIC in series [7] was determined as 57 µg/mL (≈ 116 µM). The same molecule displayed an MIC in [8] of 60 µg/mL (≈ 122 µM). For the same molecule, the MIC in series [9] came out at 62 µg/mL (≈ 126 µM). In addition, the MIC in series [10] is 62 µg/mL (≈ 126 µM).

Take `O=c1oc2ccccc2c(O)c1C(c1ccc(F)cc1)N(C1CCCCC1)C1CCCCC1` (centres unmarked) [Compound 4d, 3-((Dicyclohexylamino)(4-fluorophenyl)methyl)-4-hydroxy-2H-chromen-2-one]: the melting point lay within 122 to 124 °C. Further, inhibition of growth in series [1] (MIC) required 15 µg/mL (≈ 33.4 µM). Inhibition of growth in series [2] (MIC) required 30 µg/mL (≈ 66.7 µM). This molecule had a minimum inhibitory concentration (MIC) in series [3] of 28 µg/mL (≈ 62.3 µM). The molecule further displayed a minimal inhibitory concentration (MIC) in [4] of 28 µg/mL (≈ 62.3 µM). This molecule also yielded an MIC in [5] of 18 µg/mL (≈ 40 µM). Further, in [6], the MIC came to 20 µg/mL (≈ 44.5 µM). In series [7], the MIC was determined as 30 µg/mL (≈ 66.7 µM). The molecule also showed an MIC in series [8] of 49 µg/mL (≈ 109 µM). Further, in [9], the MIC turned out to be 50 µg/mL (≈ 111 µM). The molecule also had an MIC in series [10] of 50 µg/mL (≈ 111 µM).

`CC1(C)S[C@@H]2[C@H](NC(=O)[C@H](N)c3ccccc3)C(=O)N2[C@H]1C(=O)O` [Ampicillin, reference compound]: the MIC in [8], in series [9] and in [10] was 50 µg/mL (≈ 143 µM) throughout.

A word on the melting point: it is the temperature, or range, at which the solid turns liquid. In general, MIC refers to the lowest concentration found to suppress growth. Read a low MIC as inhibition by little substance.
